According to ChEMBL document CHEMBL1151651, “Antimicrobially active alkaloids from Tabernaemontana chippii” (1985):
Values after ≈ are worked out from the molar mass of the structure shown.

Columns and labels:
Assay type in all cases: functional
Bacillus subtilis [1] = experiment: Antimicrobial activity against Bacillus subtilis using pH 4.0 buffer as solvent by agar diffusion test
Escherichia coli [2] = experiment: Antimicrobial activity against Escherichia coli using pH 4.0 buffer as solvent by agar diffusion test
Staphylococcus aureus [3] = experiment: Antimicrobial activity against Staphylococcus aureus using pH 4.0 buffer as solvent by agar diffusion test
Pseudomonas aeruginosa [4] = experiment: Antimicrobial activity against Pseudomonas aeruginosa using pH 4.0 buffer as solvent by agar diffusion test
Escherichia coli [5] = experiment: Antimicrobial activity against Escherichia coli using distilled water as solvent by agar diffusion test
Staphylococcus aureus [6] = experiment: Antimicrobial activity against Staphylococcus aureus using distilled water as solvent by agar diffusion test
Bacillus subtilis [7] = experiment: Antimicrobial activity against Bacillus subtilis using distilled water as solvent by agar diffusion test
Pseudomonas aeruginosa [8] = experiment: Antimicrobial activity against Pseudomonas aeruginosa using distilled water as solvent by agar diffusion test

MIC (Bacillus subtilis [1]) | MIC (Escherichia coli [2]) | MIC (Staphylococcus aureus [3]) | MIC (Pseudomonas aeruginosa [4]) | Compound | MIC (Escherichia coli [5]) | MIC (Staphylococcus aureus [6]) | MIC (Bacillus subtilis [7]) | MIC (Pseudomonas aeruginosa [8])
14 µg/mL (≈ 19.4 µM) | 750 µg/mL (≈ 1040 µM) | 45 µg/mL (≈ 62.4 µM) | 150 µg/mL (≈ 208 µM) | C=CC1CN(C)[C@H]2Cc3c([nH]c4ccccc34)[C@H](c3c(OC)ccc4c5c([nH]c34)[C@]3(C(=O)OC)C[C@@H]4C[C@H](CC)[C@@H]3N(CC5)C4O)C[C@H]1C2C(=O)OC (some centres undefined) | – | – | – | –
4 µg/mL (≈ 5.67 µM) | 70 µg/mL (≈ 99.3 µM) | 50 µg/mL (≈ 70.9 µM) | 400 µg/mL (≈ 567 µM) | C=CC1CN(C)[C@H]2Cc3c([nH]c4ccccc34)[C@H](c3c(OC)ccc4c5c([nH]c34)[C@]3(C(=O)OC)C[C@@H]4C[C@H](CC)[C@@H]3N(CC5)C4)C[C@H]1C2C(=O)OC (some centres undefined) [CONODURINE] | – | – | – | –
8 µg/mL (≈ 11.1 µM) | 170 µg/mL (≈ 236 µM) | 65 µg/mL (≈ 90.2 µM) | 65 µg/mL (≈ 90.2 µM) | C=CC1CN(C)[C@H]2Cc3c([nH]c4ccccc34)[C@H](c3cc4c5c([nH]c4cc3OC)[C@]3(C(=O)OC)C[C@@H]4C[C@H](CC)[C@@H]3N(CC5)C4O)C[C@H]1C2C(=O)OC (some centres undefined) | – | – | – | –
15 µg/mL (≈ 21.3 µM) | 110 µg/mL (≈ 156 µM) | 35 µg/mL (≈ 49.7 µM) | 400 µg/mL (≈ 567 µM) | C=CC1CN(C)[C@H]2Cc3c([nH]c4ccccc34)[C@H](c3cc4c5c([nH]c4cc3OC)[C@]3(C(=O)OC)C[C@@H]4C[C@H](CC)[C@@H]3N(CC5)C4)C[C@H]1C2C(=O)OC (some centres undefined) [CONODURAMINE] | – | – | – | –
50 µg/mL (≈ 83.2 µM) | 100 µg/mL (≈ 166 µM) | – | – | C=CC1CN(C)[C@@H]2Cc3c([nH]c4ccccc34)[C@@H](/C=C3\c4[nH]c5ccccc5c4CN4CC[C@H]3/C(=C\C)C4)C[C@@H]1C2C(=O)OC (some centres undefined) [VOBAPARICINE] | – | – | – | –

Compound | MIC (Bacillus subtilis [1]) | MIC (Escherichia coli [2]) | MIC (Staphylococcus aureus [3]) | MIC (Pseudomonas aeruginosa [4]) | MIC (Escherichia coli [5]) | MIC (Staphylococcus aureus [6]) | MIC (Bacillus subtilis [7]) | MIC (Pseudomonas aeruginosa [8])
CC[C@H]1C[C@H]2C[C@@]3(C(=O)OC)c4[nH]c5cc(OC)c(OC)cc5c4CCN(C2O)[C@@H]13 (some centres undefined) | 60 µg/mL (≈ 145 µM) | > 1000 µg/mL | 140 µg/mL (≈ 338 µM) | > 1000 µg/mL | – | – | – | –
CN[C@@H]1[C@H](O[C@H]2[C@H](O[C@H]3[C@H](O)[C@@H](O)[C@H](N=C(N)N)[C@@H](O)[C@@H]3N=C(N)N)O[C@@H](C)[C@]2(O)C=O)O[C@@H](CO)[C@H](O)[C@H]1O [STREPTOMYCIN] | 1 µg/mL (≈ 1.72 µM) | 80 µg/mL (≈ 138 µM) | 5 µg/mL (≈ 8.6 µM) | 7 µg/mL (≈ 12 µM) | 0.5 µg/mL (≈ 0.86 µM) | 1 µg/mL (≈ 1.72 µM) | 0.2 µg/mL (≈ 0.344 µM) | 12 µg/mL (≈ 20.6 µM)
CC[C@H]1C[C@H]2C[C@@]3(C(=O)OC)c4[nH]c5cc(OC)ccc5c4CCN(C2O)[C@@H]13 (some centres undefined) | 50 µg/mL (≈ 130 µM) | 500 µg/mL (≈ 1300 µM) | 500 µg/mL (≈ 1300 µM) | 300 µg/mL (≈ 780 µM) | – | – | – | –
